The values below come from US11530219B2, “Ligands to cereblon (CRBN)” (DANA-FARBER CANCER INSTITUTE, INC., priority 2018, dated 2022).

Entries after “also recorded” stand apart in the source; their conditions may differ.

In the first assay the target is CRBN (Homo sapiens (Human), UniProt Q96SW2). The assay can be described thus: Cellular CRBN dBET6 displacement assay (BRD4BD2-GFP/mCherry reporter cells). It is filed as cell-based. To be noted: Flip-In 293 cells stably expressing BRD4BD2-GFP, 100 nM dBET6, 5 hours. As to the method: BRD4BD2 were subcloned into mammalian pcDNA5/FRT Vector (Ampicillin and Hygromycin B resistant) modified to contain MCS-eGFP-P2A-mCherry. […] Following a 2-3 passage cycle, FACS (FACSAria™ II, BD) was used to enrich for cells expressing eGFP and mCherry.
Chain of CRBN (Q96SW2 whole entry): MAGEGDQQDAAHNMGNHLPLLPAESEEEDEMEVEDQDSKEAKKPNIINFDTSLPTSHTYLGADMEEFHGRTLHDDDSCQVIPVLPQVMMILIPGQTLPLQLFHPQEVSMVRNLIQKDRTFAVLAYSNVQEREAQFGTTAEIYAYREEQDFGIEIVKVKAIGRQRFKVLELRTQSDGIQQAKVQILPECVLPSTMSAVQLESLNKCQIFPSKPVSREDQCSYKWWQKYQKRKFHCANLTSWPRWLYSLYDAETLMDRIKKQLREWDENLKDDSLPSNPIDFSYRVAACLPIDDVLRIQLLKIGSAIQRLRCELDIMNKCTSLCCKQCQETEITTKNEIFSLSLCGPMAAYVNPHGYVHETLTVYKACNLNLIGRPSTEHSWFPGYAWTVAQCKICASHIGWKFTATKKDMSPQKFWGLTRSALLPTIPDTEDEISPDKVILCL
Signal from minimal 3000 events per well was acquired and the eGFP and mCherry florescence monitored. Data was analyzed using FlowJo® (FlowJo®, LCC). […] The eGFP protein abundance relative to mCherry was then quantified as a ten-fold amplified ratio for each individual cell using the formula: 10×eGFP/mCherry. The median of the ratio was then calculated per set, normalized to the median of the DMSO ratio.
This assay provided a readout of cellular CRBN binding impacted by the permeability of the molecule tested.
On to `O=C1CCC(N2Cc3c(Nc4ccnc(NCCCN5CCCC5=O)n4)cccc3C2=O)C(=O)N1` (stereo not drawn) [Compound 22, 3-(1-oxo-4-((2-((3-(2-oxopyrrolidin-1-yl)propyl)amino)pyrimidin-4-yl)amino)isoindolin-2-yl)piperidine-2,6-dione], for which the “Cellular CRBN-BRD4 dBET6 displacement EC50” value is “inactive; also recorded: Not binding”. In the case of `COc1cc(F)ccc1-c1nccc(NCC(=O)Nc2cccc3c2CN(C2CCC(=O)NC2=O)C3=O)n1` (stereo not drawn) [Compound 34, N-(2-(2,6-dioxopiperidin-3-yl)-1-oxoisoindolin-4-yl)-2-((2-(4-fluoro-2-methoxyphenyl)pyrimidin-4-yl)amino)acetamide], the “Cellular CRBN-BRD4 dBET6 displacement EC50” value was “inactive; also recorded: Not binding”. As to `NS(=O)(=O)c1ccc(Nc2nccc(Nc3cccc4c3CN(C3CCC(=O)NC3=O)C4=O)n2)cc1` (stereo not drawn) [Compound 40, 4-((4-((2-(2,6-dioxopiperidin-3-yl)-1-oxoisoindolin-4-yl)amino)pyrimidin-2-yl)amino)benzenesulfonamide], the “Cellular CRBN-BRD4 dBET6 displacement EC50” value was “inactive; also recorded: Not binding”.

The same assay, now with this note: Flip-In 293 cells stably expressing BRD4BD2-GFP, 100 nM dBET6, 5 hours; read-out: Cellular CRBN-BRD4 dBET6 displacement EC50.
The EC50 is the midpoint of the concentration-response curve. Take `COc1ccc(Nc2nccc(Nc3cccc4c3CN(C3CCC(=O)NC3=O)C4=O)n2)cc1` (stereo not drawn) [Compound 18, 3-(4-((2-((4-methoxyphenyl)amino)pyrimidin-4-yl)amino)-1-oxoisoindolin-2-yl)piperidine-2,6-dione]: the EC50 worked out at 2.69 µM. For `O=C1CCC(N2Cc3c(Nc4ccnc(Nc5ccc6c(c5)OCCO6)n4)cccc3C2=O)C(=O)N1` (stereo not drawn) [Compound 19, 3-(4-((2-((2,3-dihydrobenzo[b][1,4]dioxin-6-yl)amino)pyrimidin-4-yl)amino)-1-oxoisoindolin-2-yl)piperidine-2,6-dione], the EC50 came out at 3.63 µM. On to `CC(=O)c1ccc(-c2nccc(Nc3cccc4c3CN(C3CCC(=O)NC3=O)C4=O)n2)cc1` (stereo not drawn) [Compound 20, 3-(4-((2-(4-acetylphenyl)pyrimidin-4-yl)amino)-1-oxoisoindolin-2-yl)piperidine-2,6-dione], for which the EC50 is 1.26 µM. Turning to `O=C1CCC(N2Cc3c(Nc4ccnc(Nc5ccccc5F)n4)cccc3C2=O)C(=O)N1` (stereo not drawn) [Compound 21, 3-(4-((2-((2-fluorophenyl)amino)pyrimidin-4-yl)amino)-1-oxoisoindolin-2-yl)piperidine-2,6-dione], the EC50 stood at 2.31 µM.

For the molecule `O=C1CCC(N2Cc3c(Nc4ccnc(Nc5ccc6c(c5)CCC6)n4)cccc3C2=O)C(=O)N1` (stereo not drawn) [Compound 24, 3-(4-((2-((2,3-dihydro-1H-inden-5-yl)amino)pyrimidin-4-yl)amino)-1-oxoisoindolin-2-yl)piperidine-2,6-dione], the EC50 was 1.35 µM. Same read-out and setting: with `CN(c1ccccc1)c1nccc(Nc2cccc3c2CN(C2CCC(=O)NC2=O)C3=O)n1` (stereo not drawn) [Compound 27, 3-(4-((2-(methyl(phenyl)amino)pyrimidin-4-yl)amino)-1-oxoisoindolin-2-yl)piperidine-2,6-dione] the figure was 1.25 µM; with `Cc1cc(C)c(Nc2nccc(Nc3cccc4c3CN(C3CCC(=O)NC3=O)C4=O)n2)c(C)c1` (stereo not drawn) [Compound 28, 3-(4-((2-(mesitylamino)pyrimidin-4-yl)amino)-1-oxoisoindolin-2-yl)piperidine-2,6-dione], 3.25 µM; with `O=C1CCC(N2Cc3c(Nc4ccnc(N5CCC[C@H]5CO)n4)cccc3C2=O)C(=O)N1` (stereo partly drawn) [Compound 29, 3-(4-((2-((S)-2-(hydroxymethyl)pyrrolidin-1-yl)pyrimidin-4-yl)amino)-1-oxoisoindolin-2-yl)piperidine-2,6-dione], 8.14 µM.

As for `O=C1CCC(N2Cc3c(Nc4ccnc(N5CCC[C@@H]5CO)n4)cccc3C2=O)C(=O)N1` (stereo partly drawn) [Compound 30, 3-(4-((2-((R)-2-(hydroxymethyl)pyrrolidin-1-yl)pyrimidin-4-yl)amino)-1-oxoisoindolin-2-yl)piperidine-2,6-dione], the EC50 was determined as 8.15 µM. For the molecule `O=C1CCC(N2Cc3c(Nc4ccnc(-c5ccc(-c6ccccc6)cc5)n4)cccc3C2=O)C(=O)N1` (stereo not drawn) [Compound 31, 3-(4-((2-([1,1′-biphenyl]-4-yl)pyrimidin-4-yl)amino)-1-oxoisoindolin-2-yl)piperidine-2,6-dione], the EC50 amounted to 8.66 µM.

In the case of `COc1cccc(-c2nccc(Nc3cccc4c3CN(C3CCC(=O)NC3=O)C4=O)n2)c1` (stereo not drawn) [Compound 32, 3-(4-((2-(3-methoxyphenyl)pyrimidin-4-yl)amino)-1-oxoisoindolin-2-yl)piperidine-2,6-dione], the concentration giving a half-maximal response (EC50) worked out at 4.16 µM. With `COc1cc(F)ccc1-c1nccc(Nc2cccc3c2CN(C2CCC(=O)NC2=O)C3=O)n1` (stereo not drawn) [Compound 33, 3-(4-((2-(4-fluoro-2-methoxyphenyl)pyrimidin-4-yl)amino)-1-oxoisoindolin-2-yl)piperidine-2,6-dione], the EC50 was determined as 2.59 µM. For the molecule `COc1ccc(-c2nccc(Nc3cccc4c3CN(C3CCC(=O)NC3=O)C4=O)n2)c(OC)c1` (stereo not drawn) [Compound 35, 3-(4-((2-(2,4-dimethoxyphenyl)pyrimidin-4-yl)amino)-1-oxoisoindolin-2-yl)piperidine-2,6-dione], the half-maximal effective concentration (EC50) stood at 1.86 µM. For `O=C1CCC(N2Cc3c(Nc4ccnc(-c5cc6ccccc6o5)n4)cccc3C2=O)C(=O)N1` (stereo not drawn) [Compound 36, 3-(4-((2-(benzofuran-2-yl)pyrimidin-4-yl)amino)-1-oxoisoindolin-2-yl)piperidine-2,6-dione], the EC50 is 2.24 µM. As to `CC(C)C(CO)Nc1nccc(Nc2cccc3c2CN(C2CCC(=O)NC2=O)C3=O)n1` [Compound 37, 3-(4-((2-(((R)-1-hydroxy-3-methylbutan-2-yl)amino)pyrimidin-4-yl)amino)-1-oxoisoindolin-2-yl)piperidine-2,6-dione], the EC50 stood at 9.74 µM. On to `COc1ccccc1Nc1nccc(Nc2cccc3c2CN(C2CCC(=O)NC2=O)C3=O)n1` (stereo not drawn) [Compound 38, 3-(4-((2-((2-methoxyphenyl)amino)pyrimidin-4-yl)amino)-1-oxoisoindolin-2-yl)piperidine-2,6-dione], for which the EC50 was 2.6 µM.

On to `O=C1CCC(N2Cc3c(Nc4ccnc(Nc5ccc6c(c5)CCN6)n4)cccc3C2=O)C(=O)N1` (stereo not drawn) [Compound 43, 3-(4-((2-(indolin-5-ylamino)pyrimidin-4-yl)amino)-1-oxoisoindolin-2-yl)piperidine-2,6-dione], for which the EC50 worked out at 25.3 µM. Consider `O=C1CCC(N2Cc3c(Nc4ccnc(NC56CC7CC(CC(C7)C5)C6)n4)cccc3C2=O)C(=O)N1` (stereo not drawn) [Compound 44, 3-(4-((2-(((3s,5s,7s)-adamantan-1-yl)amino)pyrimidin-4-yl)amino)-1-oxoisoindolin-2-yl)piperidine-2,6-dione], for which the concentration for a half-maximal effect (EC50) amounted to 0.913 µM.

Still in this assay, the particulars now being: unit printed as 'M' in the text (Table 1 gives μM); 100 nM dBET6, 5 hours; read-out: Cellular CRBN engagement EC50.
As for `O=C1CCC(N2Cc3c(Nc4ccnc(N5CCN(c6cccc(C(F)(F)F)c6)CC5)n4)cccc3C2=O)C(=O)N1` (stereo not drawn) [Compound 23, 3-(1-oxo-4-((2-(4-(3-(trifluoromethyl)phenyl)piperazin-1-yl)pyrimidin-4-yl)amino)isoindolin-2-yl)piperidine-2,6-dione], the EC50 is 0.66 µM.

In the case of `CCN(Cc1ccccc1)c1nccc(Nc2cccc3c2CN(C2CCC(=O)NC2=O)C3=O)n1` (stereo not drawn) [Compound 26, 3-(4-((2-(benzyl(ethyl)amino)pyrimidin-4-yl)amino)-1-oxoisoindolin-2-yl)piperidine-2,6-dione], the EC50 was 0.67 µM. Regarding `O=C1CCC(N2Cc3c(Nc4ccnc(-c5ccc(F)cc5)n4)cccc3C2=O)C(=O)N1` (stereo not drawn) [Compound 39, 3-(4-((2-(4-fluorophenyl)pyrimidin-4-yl)amino)-1-oxoisoindolin-2-yl)piperidine-2,6-dione], the EC50 came out at 0.742 µM.
